The test system of data set [1] is murine Factor XI mRNA. The data set is described as follows: In vivo antisense inhibition of murine Factor XI: liver RNA analysis (Example 10). The note with it: BALB/c mice, relative to PBS control. As for the experimental part:
Several antisense oligonucleotides targeted to murine Factor XI mRNA (GENBANK Accession No. NM_028066.1, incorporated herein as SEQ ID NO: 6) showing statistically significant dose-dependent inhibition from the in vitro study were evaluated in vivo. BALB/c mice were treated with ISIS 404057 ([…], target start site 487, incorporated herein as SEQ ID NO: 10) and ISIS 404071 ([…], target start site 869, incorporated herein as SEQ ID NO: 11).
BALB/c mice were injected with 5 mg/kg, 10 mg/kg, 25 mg/kg, or 50 mg/kg of ISIS 404057 or ISIS 404071 twice a week for 3 weeks. A control group of mice was injected with phosphate buffered saline (PBS) twice a week for 3 weeks. Mice were sacrificed 5 days after receiving the last dose. Whole liver was harvested for RNA analysis and plasma was collected for protein analysis.
RNA was extracted from liver tissue for real-time PCR analysis of Factor XI. […] Results are presented as percent inhibition of Factor XI, relative to control.

Data set [2] relates to collagen-induced arthritis model. The experiment in a line: Arthritis Study B: collagen-induced arthritis, clinical effects (Example 11). The note with it: Arthritis Study B, 20 mg/kg twice a week for ten weeks, compared to untreated mice. Type of data set: in vivo, DBA/1J mice. Here is the method:
The effect of inhibition of Factor XI and its role in fibrin accumulation in the joints leading to joint inflammation and rheumatoid arthritis was evaluated in a murine collagen-induced arthritis (CIA) model. […] Arthritis induced in mice administered collagen can be visually assessed and clinically scored as described by Marty et al. (J Clin Invest, 107:631-640, 2001) where 1 point is given for each swollen digit except the thumb (maximum, 4), 1 point is given for the tarsal or carpal joint, and 1 point is given for the metatarsal or metacarpal joint with a maximum score of […]. Each paw was graded individually, the cumulative clinical arthritic score per mouse reaching a maximum of 22 points
(§1) In a group of 20 DBA/1J mice, 20 mg/kg of ISIS 404071 were injected subcutaneously twice a week for ten weeks. In a second group of 20 DBA/1J mice, 20 mg/kg of ISIS 404057 were injected subcutaneously twice a week for ten weeks. In a third control group of 20 DBA/1J mice, 20 mg/kg of ISIS 421208 were injected subcutaneously twice a week for ten weeks. Two control groups of 20 mice each were injected with PBS twice a week for ten weeks.
Two and a half weeks after the first oligonucleotide dose, type II bovine collagen in complete Freund's adjuvant was injected subcutaneously at the base of the tail in all the experimental groups and one PBS control group. A booster injection containing 100 μg collagen type II in incomplete Freund's adjuvant was injected subcutaneously at the base of the tail at a different injection site on day 21 after the first collagen injection in these groups.
(§2) Mice in all groups were examined daily after day 30 after the first collagen injection for the visual appearance of arthritis in peripheral joints. The results in Table 22 are expressed as percent change compared to the PBS control except for the liver and spleen weight.

Another data set has as its system Factor XI mRNA. The data set is described as follows: Arthritis Study B: liver Factor XI mRNA. The format is in vivo, DBA/1J mice. The note with it: FIG. 4B. Here is the method:
as §1, §2
The difference between the effective of the two Factor XI antisense oligonucleotides may be related to the relative effectiveness of each oligonucleotide in inhibiting Factor XI mRNA as shown in FIG. 4B.

Data set [3] concerns DSS-induced colitis model. The data set is described as follows: Colitis Study B: body weight and colon length. The format is in vivo, Swiss Webb mice. As for the experimental part:
(§3) In a first group of 8 Swiss Webb mice, 20 mg/kg of ISIS 404071 was injected subcutaneously twice a week for 3 weeks. In a second group of 8 Swiss Webb mice, 20 mg/kg of ISIS 404057 was subcutaneously injected twice a week for 3 weeks. In a third control group of 8 Swiss Webb mice, 20 mg/kg of ISISI 421208 was injected subcutaneously twice a week for 3 weeks. Two control groups of 8 mice each were injected with PBS twice a week for 3 weeks. After the oligonucleotide treatment, 4% DSS in water was administered ad libitum for 6 days to all the experimental groups and one PBS control group.
(§4) Mice in all groups were weighed at day 0 and daily after administration of DSS. Mice were sacrificed at the end of the study on day 7 after DSS was administered, their livers and colons were harvested for RNA analysis, and their body weights and colon lengths were measured.

Data set [4] concerns murine Factor XI mRNA. The experiment in a line: Colitis Study B: Factor XI mRNA in the liver. Type of data set: in vivo, Swiss Webb mice. The note with it: DSS-induced colitis, day 7, 20 mg/kg s.c. twice a week for 3 weeks, percent change compared to the PBS control. Here is the method: as §3, §4
RT-PCR analysis of Factor XI mRNA was performed. As presented in Table 27 and FIG. 10, antisense oligonucleotides targeting Factor XI achieved statistically significant dose-dependent reduction of murine Factor XI over the PBS control in the liver. All the measurements are normalized to cyclophilin.
All the results in Table 27 are expressed as percent change compared to the PBS control.

Data set [5] is described as follows: Tolerability in CD1 mice: body and organ weight (Example 25). Type of data set: in vivo. Conditions: 50 mg/kg s.c. twice per week for 6 weeks.
A short description of data set [6]: Tolerability in CD1 mice: liver function (Example 25). The format is in vivo. The note with it: 50 mg/kg s.c. twice per week for 6 weeks, plasma.
A short description of data set [7]: Tolerability in CD1 mice: kidney function (Example 25). The note with it: 50 mg/kg s.c. twice per week for 6 weeks, plasma. Type of data set: in vivo.
The nature of data set [8]: Tolerability in CD1 mice: hematology assays (Example 25). The note with it: 50 mg/kg s.c. twice per week for 6 weeks, blood. Type of data set: in vivo. The arrangement: RBC / WBC / Neutrophil / Lymphocyte / Platelets: unit not given here.
The subject of a further data set is human Factor XI mRNA. The experiment in a line: Antisense inhibition of human Factor XI in HepG2 cells, 75 nM, lipofectin (Example 1). The format is cell-based. Conditions: HepG2, 75 nM, approximately 24 hours, gapmers targeted to SEQ ID NO: 1, relative to untreated control cells. Here is the method: Antisense oligonucleotides targeted to a Factor XI nucleic acid were tested for their effects on Factor XI mRNA in vitro. Cultured HepG2 cells at a density of 10,000 cells per well were transfected using lipofectin reagent with 75 nM antisense oligonucleotide. After a treatment period of approximately 24 hours, RNA was isolated from the cells and Factor XI mRNA levels were measured by quantitative real-time PCR. Factor XI mRNA levels were adjusted according to total RNA content, as measured by RIBOGREEN®. Results are presented as percent inhibition of Factor XI, relative to untreated control cells.
The chimeric antisense oligonucleotides in Tables 1 and 2 were designed as 5-10-5 MOE gapmers. The gapmers are 20 nucleotides in length, wherein the central gap segment is comprised of 10 2′-deoxynucleotides and is flanked on both sides (in the 5′ and 3′ directions) by wings comprising 5 nucleotides each. Each nucleotide in the 5′ wing segment and each nucleotide in the 3′ wing segment has a 2′-MOE modification. The internucleoside linkages throughout each gapmer are phosphorothioate (P═S) linkages. All cytidine residues throughout each gapmer are 5-methylcytidines. “Target start site” indicates the 5′-most nucleotide to which the gapmer is targeted. “Target stop site” indicates the 3′-most nucleotide to which the gapmer is targeted. […]

Data set [9] is described as follows: Cynomolgus monkeys: body and organ weights (Example 30). Type of data set: in vivo. Conditions: day 55. As for the experimental part: (§5) Groups, each consisting of two male and two female monkeys, were injected subcutaneously with 25 mg/kg of ISIS 416850, ISIS 449709, ISIS 445522, ISIS 449710, ISIS 449707, ISIS 449711, ISIS 449708, 416858 and ISIS 445531. Antisense oligonucleotide was administered to the monkeys at 25 mg/kg three times per week for week 1 and 25 mg/kg twice per week for weeks 2 to 8. A control group, consisting of two male and two female monkeys was injected subcutaneously with PBS according to the same dosing regimen. Body weights were taken 14 days and 7 days before the start of treatment and were then measured weekly throughout the treatment period. Blood samples were collected 14 days and 5 days before the start of treatment and subsequently several times during the dosing regimen for measurement of various hematologic factors. On day 55, the monkeys were euthanized by exsanguination while under deep anesthesia, and organs harvested for further analysis.
Organ weights were taken after the animals were euthanized on day 55, and livers, kidneys and spleens were harvested.

The test system of data set [10] is IL-1β, IL-6, IFN-γ, TNF-α, IL-8, MIP-1α, MCP-1, MIP-10, RANTES. The data set is described as follows: Cynomolgus monkeys: cytokine and chemokine assays (Example 30). Type of data set: in vivo. Here is the method:
as §5
Blood samples obtained from all monkey groups were sent to Pierce Biotechnology (Woburn, Mass.) for measurements of chemokine and cytokine levels. Levels of IL-1β, IL-6, IFN-γ, and TNF-α were measured using the respective primate antibodies and levels of IL-8, MIP-1α, MCP-1, MIP-10 and RANTES were measured using the respective cross-reacting human antibodies. Measurements were taken 14 days before the start of treatment and on day 55, when the monkeys were euthanized.

[11] abbreviates: DSS-induced colitis, day 7, 20 mg/kg s.c. twice a week for 3 weeks, percent change compared to the PBS control.
The mark [12] stands for this setting: day −14 (before start of treatment).

Consider four substances from patent US20120083522A1, “MODULATION OF INFLAMMATORY RESPONSES BY FACTOR XI” (Isis Pharmaceuitcals, inc., priority 2009, published 2012).

In the oligonucleotide strings, read from the 5' end, every base follows the letter of its sugar. An asterisk marks phosphorothioate; unmarked linkages are phosphodiester. Other units and linkages are bracketed, terminal groups are in braces. A string of capitals states the bases alone. e = 2'-O-(2-methoxyethyl) (MOE); [5mC] = 5-methylcytosine; d = 2'-deoxy (DNA)

“TCCTGGCATTCTCGAGCATT (eT*e[5mC]*e[5mC]*eT*eG*dG*d[5mC]*dA*dT*dT*d[5mC]*dT*d[5mC]*dG*dA*eG*e[5mC]*eA*eT*eT) [ISIS 404057, 5-10-5 MOE gapmer targeting murine Factor XI, target start site 487]”: the “% inhibition” value came to 40% with murine Factor XI mRNA [1] (5 mg/kg twice a week for 3 weeks), 64% in the data set with murine Factor XI mRNA [1] (10 mg/kg twice a week for 3 weeks), 85% in the data set on murine Factor XI mRNA [1] (25 mg/kg twice a week for 3 weeks) and 95% in the data set with murine Factor XI mRNA [1] (50 mg/kg twice a week for 3 weeks). Moreover, in data set [2], the “amount of arthritis assessed (in words)” value was “did not affect the amount of arthritis”. For the same substance, the “Factor XI inhibition in liver (in words)” value with Factor XI mRNA is “lack of Factor XI inhibition”. In addition, in [3] (Colitis Study B, FIG. 9), the “body weight (in words)” value is on record as “did not have any significant change in body weight”. Besides, the Body weight in data set [3] (setting [11]) was −16%. The Colon length in data set [3] (setting [11]) was −11%. In the data set on murine Factor XI mRNA [4], the “Liver Factor XI mRNA” value was −50%.
Regarding “ISIS 445503: microwalk gapmer of Table 51 (antisense eG*e[5mC]*eA*eT*eT*eG*dG*dT*dG*d[5mC]*dA*d[5mC]*dA*dG*eT*eT*eT*e[5mC]*eT*eG)”, the “Body weight (increase over PBS control weight before start of treatment)” value in [5] was determined as 9 g. Also, in [5] (end of study), the “Kidney weight as percentage of body weight” value is 1.4%, the “Liver weight as percentage of body weight” value is 8% and the “Spleen weight as percentage of body weight” value came out at 0.6%. In data set [6], this substance had an ALT of 1314 IU/L, an AST of 852 IU/L, an Albumin of 3.4 mg/dL and a Bilirubin of 0.28 mg/dL. In data set [7], this substance yielded a BUN of 29 mg/dL. Besides, in data set [8], the HCT was 46%, the Hemoglobin stood at 13.6 g/dL, the Lymphocyte was found to be 6436 and the Neutrophil is listed as 1475. For the same substance, in data set [8], the Platelets is listed as 309, the RBC was 9.2 and the WBC was found to be 8.
For the substance “412213 (antisense eA*eA*eA*e[5mC]*eA*dA*dG*d[5mC]*dA*dA*d[5mC]*d[5mC]*dG*dG*dG*eA*eT*eG*eA*eT) [compound 412213]”, in the data set with human Factor XI mRNA, the “% inhibition” value was 71%.
For “ISIS 449711: microwalk gapmer of Table 53 (antisense eA*e[5mC]*dA*dG*dT*dT*dT*d[5mC]*dT*dG*dG*d[5mC]*eA*eG)”, the “spleen weight (in words)” value in data set [9] was “caused increase in spleen weight”. In data set [10] (25 mg/kg s.c., day 55), this substance had an IL-1β level of 146 pg/mL and an MIP-1β level of 91 pg/mL. Besides, in data set [10] (setting [12]), the IL-1β level is given as 79 pg/mL and the MIP-1β level is given as 24 pg/mL.
